Results as given in ChEMBL document CHEMBL5143523, “Construction and activity evaluation of novel benzodioxane derivatives as dual-target antifungal inhibitors” (Eur J Med Chem, 2022).
Values after ≈ are worked out from the molar mass of the structure shown. Active and inactive are the calls of the source. No cut-off for these calls is given here.

Legend:
[1] = Drug uptake in fluconazole resistant Candida albicans strain 901 in presence of naftifine by fluorescence microscopy; assay type: ADME
Candida albicans [2] = assay: Antifungal activity against fluconazole resistant Candida albicans strain 901 assessed as decrease in fungal cell density in presence naftifine of by fluorescence microscopy; assay type: functional, organism-based
Candida albicans [3] = assay: Antifungal activity against fluconazole resistant Candida albicans strain 17# assessed as fungal growth inhibition measured after 72 hrs in presence of naftifine by CLSI protocol based liquid medium dilution method; assay type: functional
Candida albicans [4] = assay: Antifungal activity against fluconazole resistant Candida albicans strain CaR assessed as fungal growth inhibition measured after 72 hrs in presence of naftifine by CLSI protocol based liquid medium dilution method; assay type: functional
Candida albicans [5] = assay: Antifungal activity against fluconazole resistant Candida albicans strain 103 assessed as fungal growth inhibition measured after 72 hrs in presence of naftifine by CLSI protocol based liquid medium dilution method; assay type: functional
Candida albicans [6] = assay: Antifungal activity against fluconazole resistant Candida albicans strain 901 assessed as fungal growth inhibition measured after 72 hrs in presence of naftifine by CLSI protocol based liquid medium dilution method; assay type: functional
Candida albicans [7] = assay: Antifungal activity against fluconazole resistant Candida albicans strain 904 assessed as fungal growth inhibition measured after 72 hrs in presence of naftifine by CLSI protocol based liquid medium dilution method; assay type: functional
Candida albicans [8] = assay: Antifungal activity against Candida albicans ATCC 10231 assessed as fungal growth inhibition measured after 72 hrs by CLSI protocol based liquid medium dilution method; assay type: functional
Pichia kudriavzevii = assay: Antifungal activity against Candida krusei ATCC 6258 assessed as fungal growth inhibition measured after 72 hrs by CLSI protocol based liquid medium dilution method; assay type: functional
Nakaseomyces glabratus = assay: Antifungal activity against Candida glabrata ATCC 0001 assessed as fungal growth inhibition measured after 72 hrs by CLSI protocol based liquid medium dilution method; assay type: functional
Candida tropicalis = assay: Antifungal activity against Candida tropicalis ATCC 1369 assessed as fungal growth inhibition measured after 72 hrs by CLSI protocol based liquid medium dilution method; assay type: functional
Aspergillus fumigatus = assay: Antifungal activity against Aspergillus fumigatus KM8001 assessed as fungal growth inhibition measured after 72 hrs by CLSI protocol based liquid medium dilution method; assay type: functional
Candida albicans [9] = assay: Antifungal activity against fluconazole resistant Candida albicans strain 17# assessed as fungal growth inhibition measured after 72 hrs by CLSI protocol based liquid medium dilution method; assay type: functional
Candida albicans [10] = assay: Antifungal activity against fluconazole resistant Candida albicans strain CaR assessed as fungal growth inhibition measured after 72 hrs by CLSI protocol based liquid medium dilution method; assay type: functional
Candida albicans [11] = assay: Antifungal activity against fluconazole resistant Candida albicans strain 103 assessed as fungal growth inhibition measured after 72 hrs by CLSI protocol based liquid medium dilution method; assay type: functional
Candida albicans [12] = assay: Antifungal activity against fluconazole resistant Candida albicans strain 901 assessed as fungal growth inhibition measured after 72 hrs by CLSI protocol based liquid medium dilution method; assay type: functional
Candida albicans [13] = assay: Antifungal activity against fluconazole resistant Candida albicans strain 904 assessed as fungal growth inhibition measured after 72 hrs by CLSI protocol based liquid medium dilution method; assay type: functional
Candida albicans [14] = assay: Induction of apoptosis in Candida albicans ATCC SC5314 cells assessed as live cells at 8 ug/ml incubated for 72 hrs by Annexin V-FITC/PI staining based flow cytometry method (reference value: 95.56%); assay type: functional; details: dose 8 µg/ml
Candida albicans [15] = assay: Induction of apoptosis in Candida albicans ATCC SC5314 cells assessed as early apoptotic cells at 8 ug/ml incubated for 72 hrs by Annexin V-FITC/PI staining based flow cytometry method (reference value: 0.56%); assay type: functional; details: dose 8 µg/ml
Candida albicans [16] = assay: Induction of apoptosis in Candida albicans ATCC SC5314 cells assessed as necrotic cells at 8 ug/ml incubated for 72 hrs by Annexin V-FITC/PI staining based flow cytometry method (reference value: 3.76%); assay type: functional; details: dose 8 µg/ml
Candida albicans [17] = assay: Induction of apoptosis in Candida albicans ATCC SC5314 cells assessed as late apoptotic cells at 8 ug/ml incubated for 72 hrs by Annexin V-FITC/PI staining based flow cytometry method (reference value: 0.12%); assay type: functional; details: dose 8 µg/ml
Candida albicans [18] = assay: Antifungal activity against Candida albicans ATCC SC5314 assessed as decrease in ergosterol content at 4 ug/ml incubated for 48 hrs by LC-MS analysis (reference value: 90.6%); assay type: functional; set-up: scale not given: the % may be the effect or the level left; details: dose 4 µg/ml
Candida albicans [19] = assay: Antifungal activity against Candida albicans ATCC SC5314 assessed as change in squalene level at 4 ug/ml incubated for 48 hrs by LC-MS analysis; assay type: functional; details: dose 4 µg/ml
Candida albicans [20] = assay: Antifungal activity against Candida albicans ATCC SC5314 assessed as change in lanosterol level at 4 ug/ml incubated for 48 hrs by LC-MS analysis (reference value: 3.7%); assay type: functional; details: dose 4 µg/ml
Candida albicans [21] = assay: Antifungal activity against Candida albicans ATCC SC5314 assessed as change in eburicol level at 4 ug/ml incubated for 48 hrs by LC-MS analysis (reference value: 1.4%); assay type: functional; details: dose 4 µg/ml
Candida albicans [22] = assay: Antifungal activity against Candida albicans ATCC SC5314 assessed as change in unknown sterol level at 4 ug/ml incubated for 48 hrs by LC-MS analysis (reference value: 4.3%); assay type: functional; details: dose 4 µg/ml
Squalene epoxidase ERG1 = target: T1, Squalene epoxidase ERG1 (Candida albicans, UniProt Q92206); assay: Inhibition of SE in Candida albicans ATCC SC5314 incubated for 30 mins using squalene as substrate in presence of NADPH by spectrophotometer analysis
T1 sequence (Q92206 whole entry): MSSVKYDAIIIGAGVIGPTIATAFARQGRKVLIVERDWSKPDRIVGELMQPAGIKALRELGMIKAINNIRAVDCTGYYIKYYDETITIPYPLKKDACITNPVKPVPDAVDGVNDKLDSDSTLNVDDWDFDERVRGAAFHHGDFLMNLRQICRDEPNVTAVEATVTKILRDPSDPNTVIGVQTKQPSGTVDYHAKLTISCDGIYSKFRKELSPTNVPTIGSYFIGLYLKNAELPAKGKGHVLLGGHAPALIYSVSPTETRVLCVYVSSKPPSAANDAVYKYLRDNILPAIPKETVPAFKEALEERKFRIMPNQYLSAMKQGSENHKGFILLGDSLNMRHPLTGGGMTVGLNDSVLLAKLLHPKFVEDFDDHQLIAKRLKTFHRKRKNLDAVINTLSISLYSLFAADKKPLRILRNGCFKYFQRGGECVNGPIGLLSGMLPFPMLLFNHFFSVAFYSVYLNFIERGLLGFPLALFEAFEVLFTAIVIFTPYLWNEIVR

[23] = target: Lanosterol 14-alpha demethylase (Candida albicans (strain SC5314 / ATCC MYA-2876) (Yeast), UniProt P10613); assay: Inhibition of CYP51 in Candida albicans ATCC SC5314 incubated for 30 mins using eburicol as substrate in presence of NADPH by HPLC analysis
Chain of Lanosterol 14-alpha demethylase (P10613 whole entry): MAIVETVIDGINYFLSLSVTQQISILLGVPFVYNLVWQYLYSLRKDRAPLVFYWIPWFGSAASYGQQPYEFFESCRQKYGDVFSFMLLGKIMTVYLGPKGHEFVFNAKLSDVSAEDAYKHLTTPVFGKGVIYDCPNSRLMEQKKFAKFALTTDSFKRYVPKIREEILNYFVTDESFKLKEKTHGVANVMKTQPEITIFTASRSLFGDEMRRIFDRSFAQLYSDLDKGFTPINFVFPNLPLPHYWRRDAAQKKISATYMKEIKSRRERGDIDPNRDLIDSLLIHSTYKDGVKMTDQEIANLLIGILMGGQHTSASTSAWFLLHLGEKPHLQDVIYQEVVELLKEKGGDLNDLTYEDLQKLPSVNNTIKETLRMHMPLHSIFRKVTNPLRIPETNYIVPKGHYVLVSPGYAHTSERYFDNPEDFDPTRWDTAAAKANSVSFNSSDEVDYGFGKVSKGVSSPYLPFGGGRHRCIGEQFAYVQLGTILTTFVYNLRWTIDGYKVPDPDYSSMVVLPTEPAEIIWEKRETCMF

[24] = Hepatotoxicity in mouse infected with Candida albicans ATCC SC5314 assessed as change in plasma AST level at 4 mg/kg, ip administered ever other day for 12 days; assay type: toxicity, organism-based; details: in vivo, 288 h, time 12 day
[25] = Hepatotoxicity in mouse infected with Candida albicans ATCC SC5314 assessed as change in plasma ALT level at 4 mg/kg, ip administered ever other day for 12 days; assay type: toxicity, organism-based; details: in vivo, 288 h, time 12 day
[26] = Nephrotoxicity in mouse infected with Candida albicans ATCC SC5314 assessed as change in plasma BUN level at 4 mg/kg, ip administered ever other day for 12 days; assay type: toxicity, organism-based; details: in vivo, 288 h, time 12 day
Candida albicans [27] = assay: Antifungal activity against fluconazole resistant Candida albicans strain 901 assessed as decrease in fungal cell density at 4 ug/ml by fluorescence microscopy; assay type: functional, organism-based; details: dose 4.0 µg/ml
[28] = Drug uptake in fluconazole resistant Candida albicans strain 901 at 4 ug/ml by fluorescence microscopy; assay type: ADME; details: dose 4 µg/ml
Mus musculus [29] = assay: In vivo antifungal activity against Candida albicans ATCC SC5314 infected mouse assessed as reduction in fungal infection region at 4 mg/kg, ip administered ever other day for 12 days; assay type: functional, organism-based; details: time 12.0 day
Mus musculus [30] = assay: In vivo antifungal activity against Candida albicans ATCC SC5314 infected mouse assessed as increase in body weight at 4 mg/kg, ip administered ever other day for 12 days; assay type: functional, organism-based; details: time 12.0 day
Mus musculus [31] = assay: In vivo antifungal activity against Candida albicans ATCC SC5314 infected mouse assessed as regular arrangement of endothelial tissue at 4 mg/kg, ip administered ever other day for 12 days by hematoxyin-eosin staining based microscopic analysis; assay type: functional, organism-based; details: time 12.0 day
Mus musculus [32] = assay: In vivo antifungal activity against Candida albicans ATCC SC5314 infected mouse model assessed as reduction in nuclear aggregation at 4 mg/kg, ip administered ever other day for 12 days by hematoxyin-eosin staining based microscopic analysis; assay type: functional, organism-based; details: time 12.0 day
Mus musculus [33] = assay: In vivo antifungal activity against Candida albicans ATCC SC5314 infected mouse model assessed as regular arrangement of intercellular space at 4 mg/kg, ip administered ever other day for 12 days by hematoxyin-eosin staining based microscopic analysis; assay type: functional, organism-based; details: time 12.0 day
Mus musculus [34] = assay: In vivo antifungal activity against Candida albicans ATCC SC5314 infected mouse model assessed as disappearance of pathogenic fungi at 4 mg/kg, ip administered ever other day for 12 days by hematoxyin-eosin staining based microscopic analysis; assay type: functional, organism-based; details: time 12.0 day
[35] = Toxicity in mouse infected with Candida albicans ATCC SC5314 assessed as pathological changes in heart at 4 mg/kg, ip administered ever other day for 12 days by hematoxylin and eosin staining based histopathological analysis; assay type: organism-based; details: in vivo, 288 h, time 12 day
[36] = Toxicity in mouse infected with Candida albicans ATCC SC5314 assessed as pathological changes in liver at 4 mg/kg, ip administered ever other day for 12 days by hematoxylin and eosin staining based histopathological analysis; assay type: organism-based; details: in vivo, 288 h, time 12 day
[37] = Toxicity in mouse infected with Candida albicans ATCC SC5314 assessed as pathological changes in spleen at 4 mg/kg, ip administered ever other day for 12 days by hematoxylin and eosin staining based histopathological analysis; assay type: organism-based; details: in vivo, 288 h, time 12 day
[38] = Toxicity in mouse infected with Candida albicans ATCC SC5314 assessed as pathological changes in lung at 4 mg/kg, ip administered ever other day for 12 days by hematoxylin and eosin staining based histopathological analysis; assay type: organism-based; details: in vivo, 288 h, time 12 day
[39] = Toxicity in mouse infected with Candida albicans ATCC SC5314 assessed as pathological changes in kidney at 4 mg/kg, ip administered ever other day for 12 days by hematoxylin and eosin staining based histopathological analysis; assay type: organism-based; details: in vivo, 288 h, time 12 day

Question: Which results are given for `Clc1ccc(COC(Cn2ccnc2)c2ccc(Cl)cc2Cl)c(Cl)c1` (centres undefined) [MICONAZOLE]?
Answer: Drug uptake [1]: Active; Activity (Candida albicans [2]): Active; MIC50 (Candida albicans [3]): 1 mg/L; MIC50 (Candida albicans [4]): 1 mg/L; MIC50 (Candida albicans [5]): 2 mg/L; MIC50 (Candida albicans [6]): 2 mg/L; MIC50 (Candida albicans [7]): 1 mg/L

Question: For `O=C(N[C@H](Cc1ccccc1)Cn1cncn1)c1ccc2c(c1)OCCO2`, which MIC50 (Candida albicans [8]) is on record?
Answer: 0.25 mg/L (≈ 0.686 µM)

Question: And the MIC50 (Pichia kudriavzevii)?
Answer: 0.125 mg/L (≈ 0.343 µM)

Question: What about the MIC50 (Nakaseomyces glabratus) of the same compound?
Answer: 0.25 mg/L (≈ 0.686 µM)

Question: What about the MIC50 (Candida tropicalis) of the same compound?
Answer: 0.125 mg/L (≈ 0.343 µM)

Question: What about the MIC50 (Aspergillus fumigatus) of the same compound?
Answer: 2 mg/L (≈ 5.49 µM)

Question: And the MIC50 (Candida albicans [9])?
Answer: 2 mg/L (≈ 5.49 µM)

Question: What about the MIC50 (Candida albicans [10]) of the same compound?
Answer: 1 mg/L (≈ 2.74 µM)

Question: What about the MIC50 (Candida albicans [11]) of the same compound?
Answer: 1 mg/L (≈ 2.74 µM)

Question: What about the MIC50 (Candida albicans [12]) of the same compound?
Answer: 1 mg/L (≈ 2.74 µM)

Question: What about the MIC50 (Candida albicans [13]) of the same compound?
Answer: 2 mg/L (≈ 5.49 µM)

Question: What about the Activity (Candida albicans [14]) of the same compound?
Answer: 52.17%

Question: And the Activity (Candida albicans [15])?
Answer: 0.38%

Question: What about the Activity (Candida albicans [16]) of the same compound?
Answer: 45.83%

Question: What about the Activity (Candida albicans [17]) of the same compound?
Answer: 1.62%

Question: And the Activity (Candida albicans [18])?
Answer: 24.7%

Question: And the Activity (Candida albicans [19])?
Answer: 15.3%

Question: What about the Activity (Candida albicans [20]) of the same compound?
Answer: 18.5%

Question: What about the Activity (Candida albicans [21]) of the same compound?
Answer: 35.3%

Question: And the Activity (Candida albicans [22])?
Answer: 6.2%

Question: What about the IC50 (Squalene epoxidase ERG1) of the same compound?
Answer: 0.823 µM

Question: What about the IC50 [23] of the same compound?
Answer: 0.356 µM

Question: What about the Activity [24] of the same compound?
Answer: 83 IU/L

Question: And the Activity [25]?
Answer: 54.6 IU/L

Question: And the Activity [26]?
Answer: 13.1 mmol/L

Question: And the Activity (Candida albicans [27])?
Answer: Active

Question: And the Drug uptake [28]?
Answer: Active

Question: And the Activity (Mus musculus [29])?
Answer: Active

Question: What about the Activity (Mus musculus [30]) of the same compound?
Answer: Active

Question: What about the Activity (Mus musculus [31]) of the same compound?
Answer: Active

Question: What about the Activity (Mus musculus [32]) of the same compound?
Answer: Active

Question: And the Activity (Mus musculus [33])?
Answer: Active

Question: And the Activity (Mus musculus [34])?
Answer: Active

Question: What about the Activity [35] of the same compound?
Answer: Non-Toxic

Question: And the Activity [36]?
Answer: Non-Toxic

Question: And the Activity [37]?
Answer: Non-Toxic

Question: And the Activity [38]?
Answer: Non-Toxic

Question: What about the Activity [39] of the same compound?
Answer: Non-Toxic
